Publication PMC9099121, “Population pharmacokinetic and exposure‐response analyses from ALTA‐1L: Model‐based analyses supporting the brigatinib dose in ALK‐positive NSCLC” (Clinical and Translational Science, 2022)

Columns and labels:
[1] = in ALTA and ALTA-1L; cited from earlier work
ALK+ NSCLC [2] = test: Exposure-ORR/iORR logistic regression, ALTA-1L; assay type: in vivo, human
Description: The exposure‐efficacy analyses related reported efficacy outcomes (blinded IRC [BIRC]‐assessed PFS, ORR, and iORR) to individual brigatinib exposures predicted using individual estimated PK parameters from the population PK model. Model‐based estimates of CL/F and actual dosing history were used to derive exposure metrics of interest. Several exposure metrics were considered, including both static and dynamic area under the concentration‐time curve (AUC) estimates (Methods S1).
For ORR and iORR, each patient was classified as a responder (i.e., achieving confirmed complete or partial systemic ORR or iORR response) or a nonresponder. Relationships between ORR and iORR and brigatinib exposure were analyzed using two static exposure metrics: time‐averaged AUC between the last two disease assessment scans preceding best confirmed response and time‐averaged AUC until best confirmed response (ORR or iORR). Exposure–clinical response relationships were characterized by logistic regression models. Predicted logistic regression curve and observed response rate in each brigatinib exposure quartile or tertile (along with associated 95% CIs) were plotted.
Time averaged AUC until best confirmed response (ORR or iORR)= Cumulative dose to best confirmed systemic ORR or intracranial iORR responseOral brigatinib clearance/ (days to best confirmed systemic or intracranial response)
Static metrics of time-averaged exposure between the last two disease assessment scans preceding PFS, ORR, or iORR, or censoring (refer to 2)

[3] = test system: advanced ALK inhibitor-naive ALK+ NSCLC; details: cited from earlier work
ALK+ NSCLC [4] = test: Exposure-PFS analysis (Kaplan-Meier, Cox PH models), ALTA-1L; assay type: in vivo, human
Description: First, the relationship between PFS and two static exposure metrics, time‐averaged AUC between the last two disease assessment scans preceding progression or censoring and time‐averaged AUC until progression, was evaluated. These exposure‐PFS relationships were characterized by a proportional hazard (PH) model relating exposure to the hazard of PFS. The hazard function was expressed as: (1) λt=λ0te^β^TXi where λ 0 (t) is the baseline hazard function and Xi is a vector of predictor variables for an individual patient. The parameter vector β was estimated by maximum partial likelihood and captures the effect of exposure and/or additional covariates on the hazard of disease progression.
Next, the relationship between PFS and two dynamic exposure metrics, daily time‐varying AUC between the last two disease assessment scans preceding progression or censoring and daily time‐varying AUC until progression, was evaluated. These analyses used a time‐dependent covariate Cox PH model relating time‐dependent exposure to PFS. The hazard function was expressed as: (2) λt=λ0te^β1×AUCDt+β^TXi where model parameters were as above in Equation 1, except that exposure (AUCDt ) was a time‐dependent predictor rather than a constant for each patient.
For each static exposure‐PFS analysis, Kaplan‐Meier (KM) plots of PFS probability over time were generated and stratified by brigatinib exposure quartiles. Crizotinib PFS curves were overlaid for comparison.
Dynamic daily time-averaged AUC between successive disease assessment scans preceding the event or censoring for PFS, obtained as the average of daily AUCs within each scan interval.
Time averaged AUC until PFS= Cumulative dose to progressionOral brigatinib clearance/ (days to progression)

[5] = Exposure-safety analysis and AE incidence, ALTA-1L; assay type: in vivo, human
Description: […] AEs of interest selected for analysis included eight grade two or higher AEs (increased alanine aminotransferase [ALT], AST, or amylase; hyperglycemia; hypertension; bradycardia; rash; and pulmonary events [pneumonitis or ILD]), five grade three or higher AEs (increased CPK, AST, ALT, amylase, and lipase), and a composite grade three or higher AE end point that included grade three or higher CPK, AST, ALT, amylase, or lipase elevations; hyperglycemia; hypertension; bradycardia; rash; and pulmonary events.
AEs were included in the analysis if they occurred any time between the first day of brigatinib dosing and 30 days after the last dose. AEs were defined according to the National Cancer Institute Common Toxicity Criteria for Adverse Events version 4.03. The relationship between time‐averaged exposure and AE probability was examined using the same logistic regression models described for the exposure–clinical response analyses. Probability of an AE was plotted against exposure, with observed probabilities calculated by exposure quartiles.
The relationship between brigatinib exposure and time to first brigatinib dose reduction was also explored. A KM plot of time to first brigatinib dose reduction was generated, with survival curves binned by brigatinib exposure quartiles, where exposure was defined as the time‐averaged AUC to the first occurrence of dose reduction.

[6] = Population PK model post hoc estimates, ALTA (second-line); assay type: in vivo, human; details: geometric mean (5th and 95th percentiles); ALTA n = 201
Description: The previously developed population PK model[11] was used for population PK analyses of ALTA‐1L data. The previous analysis provided a robust and comprehensive characterization of brigatinib PK and sources of variability. Importantly, the previous analysis included 202 patients with ALK+ NSCLC that progressed on other ALK TKIs, representing a similar patient population to patients receiving first‐line brigatinib in ALTA‐1L. These considerations supported a Bayesian re‐estimation approach for deriving individual brigatinib PK parameters in ALTA‐1L using the previously reported model, and the model was applied without modification. In brief, the population PK model described brigatinib PK using a three‐compartment model with linear distribution and elimination kinetics and first‐order absorption preceded by a set of transit compartments.[11] The model included albumin concentration as a covariate on apparent oral clearance (CL/F). Bayesian re‐estimation was performed by setting initial model conditions to values of fixed effects and random effect variances previously estimated,[11] allowing for estimation of individual PK parameters based on the PK observations in the ALTA‐1L dataset.
(§1) Diagnostic plots were created to compare brigatinib PK in patients in ALTA‐1L (first‐line setting) and ALTA (second‐line setting). […] In exploratory analyses, relationships between covariates of interest and model‐based exposure estimates were evaluated using linear regression models with each covariate as a predictor.

[7] = Linear regression of covariates versus post hoc steady-state AUC, ALTA-1L; assay type: in vivo, human; details: for Percentage change in steady-state AUC relative to value at median covariate [95% CI] / Percentage change in median AUC (with 95% CI) relative to the most common reference category: 180 mg once daily
Description: as §1

For COc1cc(N2CCC(N3CCN(C)CC3)CC2)ccc1Nc1ncc(Cl)c(Nc2ccccc2P(C)(C)=O)n1 [brigatinib], the “Incidence of any-grade AEs of elevated amylase” value [1] is listed as 15% to 18, the “Estimated probability of iORR” value (ALK+ NSCLC [2]; 5th exposure percentile following 180 mg dosing) is listed as 0.58 and the “Estimated probability of iORR” value (ALK+ NSCLC [2]; 50th (median) exposure percentile following 180 mg dosing) is listed as 0.83. The “Estimated probability of iORR” value (ALK+ NSCLC [2]; 50th (median) exposure percentile following 180 mg dosing, listed as Brigatinib) was 0.83 (0.58–0.99), the “Estimated probability of iORR” value (ALK+ NSCLC [2]; 95th exposure percentile following 180 mg dosing) was 0.99 and the “Odds ratio for probability of achieving iORR versus exposure” value (ALK+ NSCLC [2]; time-averaged AUC between the last two disease assessments preceding best confirmed intracranial response, 95% CI: 1.01–1.28, p = 0.049, n = 42) was 1.13. For the same compound, the “Odds ratio for probability of achieving ORR versus exposure” value (ALK+ NSCLC [2]; time-averaged AUC between the last two disease assessments preceding best confirmed objective response, 95% CI: 0.93–1.01, p = 0.108) was 0.97, the “Odds ratio for probability of achieving ORR versus exposure” value (ALK+ NSCLC [2]; time-averaged AUC until the first best confirmed response, p = 0.13) was 0.97 [0.94–1.01] and the “Odds ratio for probability of iORR versus exposure” value (ALK+ NSCLC [2]; time-averaged AUC until the first best confirmed response, p = 0.15) was 1.09 [0.98–1.23]. For the same compound, the “Hazard ratio versus crizotinib (superiority, PFS)” value ([3]; ALTA-1L first interim analysis, 95% CI: 0.33–0.74, p < 0.001) was 0.49, the “Early onset pulmonary events, patients” value ([3]; ALTA-1L) was 3% and the “Median PFS” value ([3]; ALTA-1L) was at least 2 years. For the same compound, the “Median time to first brigatinib dose reduction” value ([3]; ALTA-1L) was ~ 2 years, the “2-year intracranial PFS rate” value ([3]; ALTA-1L, patients with any baseline brain metastases) was 48% and the iORR ([3]; second ALTA-1L interim analysis, patients with measurable baseline brain metastases) was 78%. For the same compound, the “Cox PH ratio for PFS versus exposure” value (ALK+ NSCLC [4]; dynamic metric: daily time-averaged AUC between successive disease assessments preceding PFS event or censoring, p = 0.08) was 1.02, the “Cox PH ratio for PFS versus exposure” value (ALK+ NSCLC [4]; dynamic metric: daily time-varying AUC preceding progression or censoring, p = 0.69) was 1.01 [0.98–1.03] and the “HR [95% CI] of disease progression or death per one-unit increase in exposure (Cox PH model)” value (ALK+ NSCLC [4]; static metric: time-averaged AUC between the last two disease assessments, p = 0.01) was 1.03 [1.01–1.05]. For the same compound, the “Incidence of ALT increase, Grade ≥2” value ([5]; n = 123) was 18 (14.6) n (%), the “Incidence of ALT increase, Grade ≥3” value ([5]; n = 123) was 6 (4.9) n (%) and the “Incidence of AST increase, Grade ≥2” value ([5]; n = 123) was 10 (8.1) n (%). The “Incidence of AST increase, Grade ≥3” value ([5]; n = 123) was 5 (4.1) n (%), the “Incidence of Amylase increase, Grade ≥2” value ([5]; n = 123) was 24 (19.5) n (%) and the “Incidence of Amylase increase, Grade ≥3” value ([5]; n = 123) was 10 (8.1) n (%). The “Incidence of Bradycardia, Grade ≥2” value ([5]; n = 123) was 2 (1.6) n (%), the “Incidence of CPK increase, Grade ≥3” value ([5]; n = 123) was 32 (26.0) n (%) and the “Incidence of Hyperglycemia, Grade ≥2” value ([5]; n = 123) was 2 (1.6) n (%). For the same compound, the “Incidence of Hypertension, Grade ≥2” value ([5]; n = 123) was 38 (30.9) n (%), the “Incidence of Lipase increase, Grade ≥3” value ([5]; n = 123) was 22 (17.9) n (%) and the “Incidence of Pulmonary AEs (pneumonitis and interstitial lung disease), Grade ≥2” value ([5]; n = 123) was 2 (1.6) n (%). For the same compound, the “Incidence of Rash, Grade ≥2” value ([5]; n = 123) was 15 (12.2) n (%), the “Incidence of Any AE, Grade ≥3” value ([5]; n = 123, composite of CPK, AST, ALT, amylase, lipase, hyperglycemia, hypertension, bradycardia, rash, pulmonary events) was 64 (52.0) n (%) and the “Odds ratio, grade ≥3 lipase increase per 1 µg·h/mL/day increase in exposure” value ([5]; time-averaged AUC across days 8 to 14 of cycle one, 95% CI: 1.00–1.10, p = 0.039) was 1.05. The “Odds ratio, grade ≥2 amylase increase per 1 µg·h/mL/day increase in exposure” value ([5]; time-averaged AUC across days 8 to 14 of cycle one, 95% CI: 1.01–1.11, p = 0.016) was 1.06, the “Estimated odds ratio, grade ≥3 lipase increase versus exposure” value ([5]; time-averaged AUC to first occurrence of an event, 95% CI: 0.99–1.07, p = 0.146) was 1.03 and the “Estimated odds ratio, grade ≥2 amylase increase versus exposure” value ([5]; time-averaged AUC to first occurrence of an event, p = 0.094) was 1.04 [0.99–1.09]. The “Effect of exposure on time to first brigatinib dose reduction (KM plots by exposure quartiles)” value ([5]; time-averaged AUC to the first occurrence of dose reduction) was “did not show a discernible effect”, the “Albumin covariate effect on CL/F” value [6] was 0.939 (0.758, 1.09) and the CL/F [6] was 9.90 (4.06, 23.0) L/h. The Mean transit time [6] was 0.998 (0.584, 1.92) h, the Q2/F [6] was 12.6 (12.6, 12.6) L/h and the Q3/F [6] was 2.67 (2.67, 2.67) L/h. For the same compound, the V1/F [6] was 199 (86.0, 468) L, the V2/F [6] was 124 (78.3, 259) L and the V3/F [6] was 78.5 (78.5, 78.5) L. For the same compound, the “Percentage change in steady-state AUC relative to value at median covariate [95% CI]” value ([7]; ALT, 5th percentile) was 0 [-6; 4] %, the “Percentage change in steady-state AUC relative to value at median covariate [95% CI]” value ([7]; ALT, 95th percentile) was 2 [-21; 28] % and the “Percentage change in steady-state AUC relative to value at median covariate [95% CI]” value ([7]; AST, 5th percentile) was -4 [-9; 4] %. The “Percentage change in steady-state AUC relative to value at median covariate [95% CI]” value ([7]; AST, 95th percentile) was 11 [-11; 38] %, the “Percentage change in steady-state AUC relative to value at median covariate [95% CI]” value ([7]; age, 5th percentile) was -26 [-39; -15] % and the “Percentage change in steady-state AUC relative to value at median covariate [95% CI]” value ([7]; age, 95th percentile) was 27 [15; 43] %. For the same compound, the “Percentage change in steady-state AUC relative to value at median covariate [95% CI]” value ([7]; albumin at baseline, 5th percentile) was 3 [1; 14] %, the “Percentage change in steady-state AUC relative to value at median covariate [95% CI]” value ([7]; albumin at baseline, 95th percentile) was -2 [-5; 0] % and the “Percentage change in steady-state AUC relative to value at median covariate [95% CI]” value ([7]; body weight, 5th percentile) was 12 [3; 21] %. The “Percentage change in steady-state AUC relative to value at median covariate [95% CI]” value ([7]; body weight, 95th percentile) was -18 [-31; -5] %, the “Percentage change in steady-state AUC relative to value at median covariate [95% CI]” value ([7]; eGFR, 5th percentile) was 2 [-9; 14] % and the “Percentage change in steady-state AUC relative to value at median covariate [95% CI]” value ([7]; eGFR, 95th percentile) was -3 [-22; 15] %. For the same compound, the “Percentage change in median AUC (with 95% CI) relative to the most common reference category” value ([7]; race: Asian (n = 53) vs White (n = 68)) was -6 [-21; 12] %, the “Percentage change in median AUC (with 95% CI) relative to the most common reference category” value ([7]; sex: Female (n = 60) vs Male (n = 63)) was 15 [-3; 37] % and the “Percentage change in steady-state AUC relative to value at median covariate [95% CI]” value ([7]; total bilirubin, 5th percentile) was -11 [-24; 8] %. For the same compound, the “Percentage change in steady-state AUC relative to value at median covariate [95% CI]” value ([7]; total bilirubin, 95th percentile) was 17 [-12; 41] %, the “Magnitude of relative difference in predicted AUC for each stratum compared with the most common stratum” value ([7]; categorical covariates (sex and race), ALTA-1L) was “less than 20%” and the “Magnitude of relative difference in predicted AUC at 5th and 95th percentiles relative to median of covariate” value ([7]; continuous covariates (age, eGFR, body weight, total bilirubin, AST, ALT), ALTA-1L) was “below 30%”. The “Variability in post hoc AUC, 5th and 95th percentiles relative to predicted AUC for a typical patient” value ([7]; overall ALTA-1L population, typical patient with albumin 41 g/L) was −60% to +263.
